pEC50: −log10 of the molar value. Read-outs that look alike come from different tables or passages of the source.
System: squamous metoplasia and keratinization in organ cultures of trachea derived from vitamin A-deficient hamsters
Test: inhibition of squamous metaplasia and keratinization (reversal of keratinization) in tracheal organ cultures
Type: cell-based, hamster
Conditions: Mesocricetus auratus, read-out: Reversal of Keratinization ED50
[1] = median effective dose: dose required for reversal of keratinization of 50% of the explants, by probit analysis, hamster trachea organ culture

Row | SMILES | pEC50 [1] | pEC50
1 | CC1=C(/C=C/C(C)=C/C=C/C(C)=C/C(=O)OCc2ccccc2N2C(=O)[C@@H](N=[N+]=[N-])[C@H]2/C=C/c2ccccc2)C(C)(C)CCC1 (relative stereo) [Compound IV] | 9.39 | 
2 | CC1=C(/C=C/C(C)=C/C=C/C(C)=C/C(=O)OCc2cccc3c2N2C(=O)[C@@H](NC(=O)Cc4ccccc4)[C@H]2CO3)C(C)(C)CCC1 (relative stereo) [Compound VI] | 9.41 | 
3 | CC1=C(/C=C/C(C)=C/C=C/C(C)=C/C(=O)OC(C(=O)c2ccccn2)c2ccccn2)C(C)(C)CCC1 (centres unmarked) [Compound VII] | 9.51 | 
4 | CC1=C(/C=C/C(C)=C/C=C/C(C)=C/C(=O)OCc2ccccc2N2C(=O)[C@@H](NC(=O)Cc3ccccc3)[C@H]2/C=C/c2ccccc2)C(C)(C)CCC1 (relative stereo) [Compound V] | 9.70 | 
5 | CC1=C(/C=C/C(C)=C/C=C/C(C)=C/C(=O)O)C(C)(C)CCC1 [β-All-trans-retinoic acid, reference compound] |  | 9.94
